Assays:
InsR = target: T1, InsR (Homo sapiens, UniProt P06213); assay: Tyrosine kinase assay (Kinase-Glo or AlphaScreen), InsR; details: biochemical tyrosine kinase assay
T1 construct: 6×His- or GST-tagged kinase domain fragments of the corresponding RTKs expressed in baculovirus system; host or cells: baculovirus system
Procedure: (§1) To determine inhibition of several tyrosine kinases, such as IGF1R, InsR, Alk, TrkA and Jak2, kinase assays are conducted using either Kinase-Glo (Promega) or AlphaScreen (PerkinElmer) kinase assay platforms. The Kinase-Glo Luminescent Kinase Assay is a homogeneous method for measuring kinase activity by determining the amount of ATP remaining after a kinase reaction. The luminescent signal is proportional to the amount of ATP and inversely proportional to the amount of kinase activity. Tyrosine kinase PT66 AlphaScreen Assay is a high-sensitivity homogeneous, anti-phosphotyrosine antibody-mediated luminescent proximity method measuring, incorporation of phosphate in synthetic poly(Glu-Tyr) substrate. The kinase preparations used consist of purified recombinant, 6×His- or GST-tagged kinase domain fragments of the corresponding RTKs expressed in baculovirus system.
(§2) The IGF1R tyrosine kinase is assayed in Kinase-Glo ATP depletion assay using the synthetic polymer poly(Glu-Tyr, 4:1) (Sigma Chemicals) as a phosphoacceptor substrate. Each reaction mixture consists of a total volume of 10 μl and contains 40 ng of the enzyme, 5 μg of poly(Glu-Tyr), 10 μM of ATP and variable concentrations of test compounds. The mixtures also contain 50 mM Tris-HCl, pH 7.5; 5 mM MgCl2; 5 mM MnCl2; 2 mM DTT and 0.01% Tween 20. The reaction mixtures are incubated at 37° C. for 60 minutes and residual concentration of ATP in the mixture is determined by adding luciferase-containing Kinase-Glo (Promega) development reagent and counting luminescence levels using Fusion Universal Microplate Analyzer (PerkinElmer). Tested compounds are dissolved in dimethyl sulfoxide to a stock concentration of 10 mM and are typically evaluated in the assay at eight concentrations in 1 nM to 20 μM range, each in quadruplicate. […] IC50 values are derived by non-linear regression analysis using Prism 3.0 software (Graphpad Software). Other tyrosine kinases are assayed according to the same protocol after titrating amount of the enzyme to provide optimal signal-to-noise ratio and no more than 30% of total ATP consumption in the reaction conditions used.
(§3) The IGF1R tyrosine kinase is assayed in Phosphotyrosine (PT66 or PT 100) AlphaScreen chemiluminescent assay (PerkinElmer) according to the manufacturerer's recommendations. Each kinase reaction mixture consists of a total volume of 15 μl and contains 0.1-1 ng of the enzyme, 7 ng of biotinylated poly(Glu-Tyr) (Cis-Bio), 10 μM of ATP and variable concentrations of test compounds. The mixtures also contain 50 mM Tris-HCl, pH 7.5; 5 mM MgCl2; 5 mM MnCl2; 2 mM DTT and 0.01% Tween 20. The reaction mixtures are incubated at room temperature for 30 minutes. Ten (10) μl of the mixture of […] and donor beads (as supplied by the manufacturer) is then added to the reaction and the incubation is continued for an additional 60 minutes.

Jak2 = target: T2, Jak2 (Homo sapiens, UniProt O60674); assay: Tyrosine kinase assay (Kinase-Glo or AlphaScreen), Jak2; details: biochemical tyrosine kinase assay
T2 construct: 6×His- or GST-tagged kinase domain fragments of the corresponding RTKs expressed in baculovirus system; host or cells: baculovirus system
T2 sequence (O60674 849-1124 limits assumed, species assumed): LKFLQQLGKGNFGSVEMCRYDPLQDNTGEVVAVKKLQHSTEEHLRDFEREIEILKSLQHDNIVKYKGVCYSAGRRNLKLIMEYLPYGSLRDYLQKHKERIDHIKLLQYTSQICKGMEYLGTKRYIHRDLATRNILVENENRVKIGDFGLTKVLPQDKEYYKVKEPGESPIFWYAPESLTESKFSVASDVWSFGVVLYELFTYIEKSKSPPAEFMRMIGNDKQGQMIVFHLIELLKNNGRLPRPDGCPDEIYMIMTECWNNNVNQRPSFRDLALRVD
Procedure: as §1, §2, §3

K562 = assay: Cell proliferation inhibition, Cell Titer-Glo, K562; format: cell-based; details: Homo sapiens; cell proliferation assay, K562 cells
Description: (§4) IGF1R and other tyrosine kinase inhibitors can inhibit the proliferation of certain cancer cell lines indicating their possible therapeutic utility for treating the corresponding cancer types. Cancer cell lines of interest and control normal lines, including CHO, HEK293, BA/F3, COLO205, PC3, DU145, MCF7, Panc1, ACHN, Hep G2, H460, K562, TT, U87-MG, CAOV-3, SK-MEL5, Karpas 299 and human multiple myeloma cell lines H929, MM1s, MM1r, UTMC2, CPM2, KMS11, My5, KMS12PE, My7, JJN3, KMS18, U266, SKMM2, RPMI-8226 are plated in white, clear-bottomed 384-well cell culture plates at 2500-5000 cells per well and supplied with dilutions of tested compounds After a desired period of time (typically 3 days), the number of viable cells is quantitated by using Cell Titer-Glo Luminescent Cell Viability Assay (Promega), a cell proliferation assay system based on detection of total amount of ATP present as a measure of cell metabolic activity. The plated cells are mixed with the Cell Titer-Glo developing reagent and counted in a luminescence multiwell plate reader according to the standard manufacturer's protocol to generate IC50 curves for cell proliferation inhibition. Results are typically reported as percent of growth (% viability =(OD72h(compound)−ODday0))/(OD72h(no compound)−ODday0). Alternatively, viable cells are quantitated by using the conventional colorimetric MTT assay. The MTT assay is based on the cleavage of the yellow tetrazolium salt MTT to purple formazan crystal by metabolic active cells. The formazan is then solubilized, and the concentration determined by optical density at 570 nm. The cells plated and incubated with a compound as described above are supplemented with the solution of MTT and incubated for 2-3 hours. The growth medium is removed and dimethyl sulfoxide is added into each well to dissolve the formazan. The absorbance is measured on an ELISA plate reader with a test wavelength of 570 nm and a background subtraction wavelength of 630 nm to obtain sample signal (OD570-OD630). […] The results are reported in terms of IC50 value for a particular compound and a cell line in the standard 3-day proliferation assay using Cell Titer-Glo. […] The results are reported in terms of IC50 value for a particular compound and a cell line in the standard 3-day proliferation assay using MTT assay.

Ba/F3 = assay: Cell proliferation inhibition, Cell Titer-Glo, Ba/F3; format: cell-based; details: Mus musculus, BaF3; cell proliferation assay, Ba/F3 cells
Description: as §4

IGF1R tyrosine kinase = target: T3, IGF1R tyrosine kinase (Homo sapiens, UniProt P08069); assay: IGF1R tyrosine kinase assay (Kinase-Glo ATP depletion or PT66/PT100 AlphaScreen); details: biochemical tyrosine kinase assay
T3 construct: 6×His- or GST-tagged kinase domain fragments of the corresponding RTKs expressed in baculovirus system; host or cells: baculovirus system
T3 sequence (P08069 999-1274 limits assumed): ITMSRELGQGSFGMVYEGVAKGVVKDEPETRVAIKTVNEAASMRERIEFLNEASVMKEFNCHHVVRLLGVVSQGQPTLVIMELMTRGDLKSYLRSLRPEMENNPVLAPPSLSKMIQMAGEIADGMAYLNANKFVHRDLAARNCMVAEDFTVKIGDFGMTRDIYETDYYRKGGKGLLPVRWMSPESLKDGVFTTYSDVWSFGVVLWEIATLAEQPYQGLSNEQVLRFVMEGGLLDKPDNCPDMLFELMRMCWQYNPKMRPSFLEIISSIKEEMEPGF
Procedure: as §1, §2, §3

Alk = target: T4, Alk (Homo sapiens, UniProt Q9UM73); assay: Tyrosine kinase assay (Kinase-Glo or AlphaScreen), Alk; details: biochemical tyrosine kinase assay
T4 construct: 6×His- or GST-tagged kinase domain fragments of the corresponding RTKs expressed in baculovirus system; host or cells: baculovirus system
T4 sequence (Q9UM73 1116-1392 limits assumed, species assumed): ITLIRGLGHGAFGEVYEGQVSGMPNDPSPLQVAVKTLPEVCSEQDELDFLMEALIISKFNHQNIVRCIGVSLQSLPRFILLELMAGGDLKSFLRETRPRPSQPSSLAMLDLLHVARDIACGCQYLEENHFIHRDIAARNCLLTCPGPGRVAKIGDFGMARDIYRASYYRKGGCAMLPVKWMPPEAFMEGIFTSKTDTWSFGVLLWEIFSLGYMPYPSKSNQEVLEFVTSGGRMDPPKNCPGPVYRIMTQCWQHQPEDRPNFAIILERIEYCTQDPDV
Procedure: as §1, §2, §3

Karpas-299 = assay: Cell proliferation inhibition, Cell Titer-Glo, Karpas-299; format: cell-based; details: Homo sapiens; cell proliferation assay, Karpas-299 cells
Description: as §4

T1 sequence (P06213 1023-1298 limits assumed, species assumed): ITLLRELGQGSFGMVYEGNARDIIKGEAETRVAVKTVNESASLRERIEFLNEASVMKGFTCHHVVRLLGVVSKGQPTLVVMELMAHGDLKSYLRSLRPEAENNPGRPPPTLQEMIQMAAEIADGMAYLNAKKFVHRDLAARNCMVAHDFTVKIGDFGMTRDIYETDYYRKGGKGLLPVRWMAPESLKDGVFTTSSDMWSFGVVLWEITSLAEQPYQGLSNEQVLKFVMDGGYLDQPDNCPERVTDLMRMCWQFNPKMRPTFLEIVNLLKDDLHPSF

Cc1ccc(OC[C@H](O)CNc2ccnc(O)c2-c2nc3cc4c(cc3[nH]2)C(=O)N(C2CCN(C)CC2)C4=O)cn1 [compound 69]
IC50 (InsR): 0.5 to 5 µM
IC50 (Jak2): 0.5 to 5 µM
IC50 (K562): > 15 µM
IC50 (Ba/F3): > 15 µM
IC50 (IGF1R tyrosine kinase): 0.5 to 5 µM
IC50 (Alk): 5 to 15 µM
IC50 (Karpas-299): > 15 µM

COc1ccc(OC[C@H](O)CNc2cc[nH]c(=O)c2-c2nc3c(C)c4c(cc3[nH]2)C(=O)N(C2CCN(C)CC2)C4=O)c(C)c1Cl [compound 138]
IC50 (InsR): < 0.5 µM
IC50 (Jak2): 0.5 to 5 µM
IC50 (K562): > 15 µM
IC50 (Ba/F3): 5 to 15 µM
IC50 (IGF1R tyrosine kinase): < 0.5 µM
IC50 (Alk): 0.5 to 5 µM
IC50 (Karpas-299): 0.5 to 5 µM

O=C1c2cc3nc(-c4c(NC[C@@H](O)c5cccc(Cl)c5)ccnc4O)[nH]c3cc2C(=O)N1CCN1CCOCC1 [compound 8]
IC50 (InsR): 0.5 to 5 µM
IC50 (Jak2): 0.5 to 5 µM
IC50 (K562): > 15 µM
IC50 (Ba/F3): > 15 µM
IC50 (IGF1R tyrosine kinase): 0.5 to 5 µM
IC50 (Alk): 0.5 to 5 µM
IC50 (Karpas-299): > 15 µM

CN1CCC(N2C(=O)c3cc4nc(-c5c(NC[C@@H](O)COc6cccc7[nH]ccc67)ccnc5O)[nH]c4cc3C2=O)CC1 [compound 101]
IC50 (InsR): < 0.5 µM
IC50 (Jak2): 0.5 to 5 µM
IC50 (K562): > 15 µM
IC50 (Ba/F3): > 15 µM
IC50 (IGF1R tyrosine kinase): < 0.5 µM
IC50 (Alk): < 0.5 µM
IC50 (Karpas-299): > 15 µM

CN1CCC(N2C(=O)c3cc4nc(-c5c(NN)ccnc5O)[nH]c4cc3C2=O)CC1 [compound 65]
IC50 (InsR): 5 to 15 µM
IC50 (Jak2): 5 to 15 µM
IC50 (K562): > 15 µM
IC50 (Ba/F3): > 15 µM
IC50 (IGF1R tyrosine kinase): 5 to 15 µM
IC50 (Alk): > 15 µM
IC50 (Karpas-299): > 15 µM

CN(C)CCc1ncccc1OC[C@H](O)CNc1ccnc(O)c1-c1nc2cc3c(cc2[nH]1)C(=O)N(C1CCN(C)CC1)C3=O [compound 72]
IC50 (InsR): 0.5 to 5 µM
IC50 (Jak2): 0.5 to 5 µM
IC50 (K562): > 15 µM
IC50 (Ba/F3): > 15 µM
IC50 (IGF1R tyrosine kinase): 0.5 to 5 µM
IC50 (Alk): 0.5 to 5 µM
IC50 (Karpas-299): > 15 µM

O=C1c2cc3nc(-c4c(NC[C@@H](O)COc5c(F)ccc(Cl)c5F)cc[nH]c4=O)[nH]c3cc2C(=O)N1CC1CCN(CCO)CC1 [compound 120]
IC50 (InsR): < 0.5 µM
IC50 (Jak2): 0.5 to 5 µM
IC50 (Ba/F3): 0.5 to 5 µM
IC50 (IGF1R tyrosine kinase): < 0.5 µM
IC50 (Alk): 0.5 to 5 µM
IC50 (Karpas-299): 0.5 to 5 µM

Cc1c(Cl)cccc1OC[C@H](O)CNc1cc[nH]c(=O)c1-c1nc2cc3c(cc2[nH]1)C(=O)N(CCCN1CCCC1)C3=O [compound 115]
IC50 (InsR): < 0.5 µM
IC50 (Jak2): 0.5 to 5 µM
IC50 (Ba/F3): > 15 µM
IC50 (IGF1R tyrosine kinase): < 0.5 µM
IC50 (Alk): 0.5 to 5 µM
IC50 (Karpas-299): 5 to 15 µM

O=C1c2cc3nc(-c4c(NC[C@@H](O)c5cccc(Cl)c5)cc[nH]c4=O)[nH]c3cc2C(=O)N1CC(O)CO (stereo partly shown) [compound 46]
IC50 (InsR): 0.5 to 5 µM
IC50 (Jak2): > 15 µM
IC50 (Ba/F3): 5 to 15 µM
IC50 (IGF1R tyrosine kinase): < 0.5 µM
IC50 (Alk): > 15 µM
IC50 (Karpas-299): 5 to 15 µM

CN1CCC(N2C(=O)c3cc4nc(-c5c(NCC(O)c6ccncc6)cc[nH]c5=O)[nH]c4cc3C2=O)CC1 (stereo not shown) [compound 7]
IC50 (InsR): 5 to 15 µM
IC50 (Jak2): 0.5 to 5 µM
IC50 (IGF1R tyrosine kinase): 0.5 to 5 µM
IC50 (Alk): > 15 µM

— US8063225B2, “Tricyclic compound derivatives useful in the treatment of neoplastic diseases, inflammatory disorders and immunomodulatory disorders” (Chembridge Corporation, priority 2006, dated 2011)
